Experimental data reported in US20020028809A1 (SUNTORY LIMITED, priority 1999, published 2002).

Key:
[1] = molecular target: T1, α4β2 subtype of nicotinic acetylcholine receptors (Rattus norvegicus, UniProt P09483+P12390); experiment: Binding assays at α4β2 subtype of nicotinic acetylcholine receptors ([3H]-cytisine, rat brain membrane)
T1 construct: examined using rat brain membrane obtained from whole homogenized brain; from tissue; host or cells: whole brain of Fischer-344 male rats, membrane pellet
Text: (§1) Methods for evaluating binding capabilities of the compounds at nicotinic acetylcholine receptors are different by subtypes of receptors. Binding capabilities of the compounds at α4β2 nicotinic acetylcholine receptors are examined using rat brain membrane obtained from whole homogenized brain, and determining the inhibiting rate of the compounds against [^3H]-cytisine binding to said brain membrane. Furthermore, the binding capabilities of the compounds at α1β1γδ nicotinic acetylcholine receptors are examined using homogenized rat muscle, and determining the inhibiting rate of the compounds against [^3H]-α-bungarotoxin binding to said muscle homogenate.
Binding assays at α4β2 Subtype of Nicotinic Acetylcholine Receptors
(1) Preparation of Rat Brain Membrane Containing α4β2 Subtype of Nicotinic Acetylcholine Receptors
Rats were housed in the breeding cage controlled of the room temperature at 23±1° C., and the humidity of 55±5% for 1 to 4 weeks. Rats (3 to 4 rats per a cage) were housed with lights on for 12 hours daily (from 7:00 to 19:00), and allowed free access to food and water.
Preparation of rat brain membrane containing α4β2 subtype of nicotinic acetylcholine receptors was performed as follow. That is, rat brains were isolated just after sacrificed by decapitation, washed with ice-cooled saline solution and then frozen at −80° C. with liquid nitrogen and stored till using. After thawing the frozen brain, the brain was homogenized in 10 volumes of ice-cooled buffer solution (50 mM of Tris-HCl, 120 mM of NaCl, 5 mM of KCl, 1 mM of MgCl2, 2mM of CaCl2; pH 7.4; 4° C.) using homogenizer (HG30, Hitachi Kohki Ltd.) for 30 seconds, and the homogenate were centrifuged under 1,000×G for 10 minutes at 4° C. The resulting supernatant was separated and the pellet was homogenized again with half volume of aforementioned prior buffer solution and centrifuged under the same conditions. Combined supernatant was further centrifuged under 40,000×G for 20 minutes at 4° C. The pellet was suspended in buffer solution and used for binding assays at receptors.
(2) Experiments of α4β2 Subtype of Nicotinic Acetylcholine Receptors Binding
Suspensions of membrane pellets containing 400-600 μg of protein were added to test tubes containing test compounds and [^3H]-cytisine (2 nM) in a final volume of 200 μl and incubated for 75 minutes in ice-cooled bath. The samples were isolated by vacuum filtration onto Whatman GF/B filters, which were prerinsed with 0.5% polyethylenimine just prior to sample filtration, using Brandel multi manifold cell harvester. The filters were rapidly washed with buffer solution (3×1 ml). The filters were counted in 3 ml of clearsol I (Nacalai Tesque Inc.).
Analyses of the experimental results were conducted using the Accufit Competition Program (Beckman Ltd.).

[2] = molecular target: T2, α1β1γδ subtype of nicotinic acetylcholine receptors (Rattus norvegicus, UniProt P18916+P25108+P25109+P25110); experiment: Binding assays at α1β1γδ subtype of nicotinic acetylcholine receptors ([3H]-α-bungarotoxin, rat muscle extract)
T2 construct: Native receptor, no construct: "Triton X100 (2% w/v) was added
Text: as §1
Binding Assays at α1β1γδ Subtype of Nicotinic Acetylcholine Receptors
Affinity of the compounds of the present invention to α1βγδ subtype of nicotinic acetylcholine receptors was measured by the following method, which was modified method described by Garcha H. S., Thomas P., Spivak C.
(1) Preparation of Rat Skeletal Muscles Containing α1β1γδ Subtype of Nicotinic Acetylcholine Receptors
The substantially same animals described in the Biological Experiment 1 were used.
Isolation of α1β1γδ subtype of nicotinic acetylcholine receptors was performed as follow. That is, rat posterior skeletal muscles were isolated just after sacrificed by decapitation, washed with ice-cooled saline solution and then frozen at −80° C. with liquid nitrogen and stored till using. After thawing the frozen muscles, tissue was homogenized (40% w/v) with buffer solution [2.5 mM of sodium phosphate buffer (pH:7.2), 90 mM of NaCl, 2 mM of KCl, 1 mM of EDTA, 2 mM of benzamidine, 0.1 mM of benzethonium chloride, […], 0.01% of sodium azide] in Waring blender (Waring blender 34BL97; WARING PRODUCTS DIVISION DYNAMICS CORPORATION OF AMERICA) for 60 seconds. The homogenate were centrifuged under 20,000×G for 60 minutes at 4° C. The supernatant was separated and the resulting pellet was added to the same buffer (1.5 ml/g wet weight), and homogenized under the same conditions. Triton X100 (2% w/v) was added and the mixture was stirred for 3 hours at 4° C. The centrifugation at 100,000×G for 60 minutes at 4° C. yielded the rat muscle extract as supernatant. This was stored at 4° C. for up to 4 weeks, and used for binding assays at receptors.
(2) Experiments of α1β1γδSubtype of Nicotinic Acetylcholine Receptors Binding
Receptors binding experiments were performed as follow. That is, the extract of rat muscle containing 600-900 μg of protein was added to test tubes containing test compounds and incubated for 15 minutes at 37° C. Then, to this mixture was added 1 nM of [^3H]-α-bungarotoxin (α-Bgt) and further incubated for 2 hours. The samples were isolated by vacuum filtration onto Whatman GF/B filters, which were prerinsed with 0.5% polyethylenimine just prior to sample filtration, using Brandel multi manifold cell harvester. The filters were rapidly rinsed with washing solution (10 mM of KH2PO4, 150 mM of NaCl, pH 7.2, room temperature) (5×1 ml). The filters were counted in 3 ml of clearsol I (Nacalai Tesque Inc.). Determination of nonspecific binding was incubated in the presence of 1 μM α-Bgt.
In the receptor binding experiments, said buffer solution was added for adjusting the final concentration of BSA to be 0.05%.
Analyses of the experimental results were conducted by the same way as described in the Biological Experiment 1.

[3] = molecular target: T3, human α4β2 subtype of nicotinic acetylcholine receptors (Homo sapiens, UniProt P17787+P43681); experiment: Agonist activities at human α4β2 subtype of nicotinic acetylcholine receptors expressed in Xenopus oocytes (membrane potential holding method); type: cell-based; conditions: for Emax at 100 µM: read-out: Agonist activity: control % by response at 100 μM of the test compound
T3 construct: expressed in transfected cells; host or cells: Xenopus laevis oocytes injected with 50 ng each of α4 and β2 cRNA (pSP64 polyA vector)
Method: Agonist effect in human α4β2 subtype of nicotinic acetylcholine receptors are examined by using human nicotinic acetylcholine receptors prepared in oocytes of Xenopus laevis, which is injected with cRNA from the corresponding cloning cDNA of human α4 and β2 subunits of nicotinic acetylcholine receptors, and to measure the expression of electric response by adding the test compounds to perfusion solution by means of membrane potential holding method.
Agonist Activities at Human α4β2 Subtype of Nicotinic Acetylcholine Receptors
(1) Preparation of cRNA of Human α4β2 Subtype of Nicotinic Acetylcholine Receptors
Obtained hnACh-R α4 cDNA and hnACh-R β2 cDNA were inserted to the cRNA expression vector (pSP64 polyA) having SP6 RNA promoter to construct hnACh-R α4/pSP64 polyA and hnACh-R β2/pSP64 polyA, respectively. After cutting from expression vector by restriction enzyme (EcoRI), transcription was performed by affecting SP6 RNA polymerase in the presence of cap analogues to obtain hnACh-R α4 cRNA and hnACh-R β2 cRNA, respectively.
(2) Expression of Human α4β2 Subtype Nicotinic Acetylcholine Receptors in Xenopus oocytes
Oocytes were purchased from Kitanihonseibutsukyohzai Co., Ltd., which were already enucleated from Xenopus laevis, and used in this experiment.
The oocytes were treated with collagenase (Sigma type I; 1 mg/ml) in calcium-free modified Birth's solution (88 mM of NaCl, 1 mM of KCl, 2.4 mM of NaHCO3, 0.82 mM of MgSO4, 15 mM of HEPES, pH 7.6) under gently stirring at room temperature for 90 minutes, and washed out the enzyme from the tissue. Then, oocytes were separated from ovarian follicle by tweezers, and isolated oocytes were placed in antibiotics containing modified Birth's solution (88 mM of NaCl, 1 mM of KCl, 2.4 mM of NaHCO3, 0.82 mM of MgSO4, 15 mM of HEPES, pH 7.6, and 0.1 v/v% of mixture solution containing of penicillin and streptomycin for incubation; Sigma Co.). […] In oocytes, heterogeneous quintuple [(α4)2(β2)3] was composed by translation of injected cRNAs, and ion channel receptors were constructed on cell membrane.
(3) Agonist Activities at Human α4β2 Subtype of Nicotinic Acetylcholine Receptors
Recordings of response at human α4β2 subtype of nicotinic acetylcholine receptors by means of membrane potential holding method were performed as follow. […] Test compounds were added to the perfusion solution, and recorded the peak strength of induced inward current. In order to normalize the response of test compounds, the response with acetylcholine (Ach) were recorded before and after application of the test compounds. Generally in the oocytes just after isolated, the response of intrinsic muscarinic acetylcholine receptors, which is inward electric current caused by activation of calcium dependence chloride ion channels with increase of the intracellular calcium concentration by stimulation of receptors, is observed. […] Therefore, the responses observed in oocytes with injection of hnACh-R α4 cRNA and hnACh-R β2 cRNA, i.e., the inward current induced by the intracellular influx of sodium ion according to the stimulation of receptors, would be the freshly observed responses of human α4β2 subtype nicotinic acetylcholine receptors.

[4] = read-out: control % of [3H]-α-Bgt binding

T3 sequence (P43681 29-627 limits assumed): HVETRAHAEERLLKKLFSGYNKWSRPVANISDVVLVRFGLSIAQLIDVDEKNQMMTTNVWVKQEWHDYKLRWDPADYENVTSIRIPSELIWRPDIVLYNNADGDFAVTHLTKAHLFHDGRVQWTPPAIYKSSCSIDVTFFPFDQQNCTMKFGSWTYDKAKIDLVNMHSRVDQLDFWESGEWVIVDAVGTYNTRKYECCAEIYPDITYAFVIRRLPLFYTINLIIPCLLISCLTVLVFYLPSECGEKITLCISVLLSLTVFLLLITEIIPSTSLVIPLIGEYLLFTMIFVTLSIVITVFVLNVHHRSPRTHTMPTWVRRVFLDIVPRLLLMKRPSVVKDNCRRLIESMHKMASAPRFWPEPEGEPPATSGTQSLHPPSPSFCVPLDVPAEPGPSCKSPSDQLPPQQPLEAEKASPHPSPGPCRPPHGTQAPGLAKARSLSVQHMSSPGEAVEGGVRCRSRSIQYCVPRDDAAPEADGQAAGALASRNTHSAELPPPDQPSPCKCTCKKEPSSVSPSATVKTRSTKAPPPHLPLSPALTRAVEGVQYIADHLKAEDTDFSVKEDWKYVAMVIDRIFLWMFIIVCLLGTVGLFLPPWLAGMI
T3 sequence (P17787 26-502): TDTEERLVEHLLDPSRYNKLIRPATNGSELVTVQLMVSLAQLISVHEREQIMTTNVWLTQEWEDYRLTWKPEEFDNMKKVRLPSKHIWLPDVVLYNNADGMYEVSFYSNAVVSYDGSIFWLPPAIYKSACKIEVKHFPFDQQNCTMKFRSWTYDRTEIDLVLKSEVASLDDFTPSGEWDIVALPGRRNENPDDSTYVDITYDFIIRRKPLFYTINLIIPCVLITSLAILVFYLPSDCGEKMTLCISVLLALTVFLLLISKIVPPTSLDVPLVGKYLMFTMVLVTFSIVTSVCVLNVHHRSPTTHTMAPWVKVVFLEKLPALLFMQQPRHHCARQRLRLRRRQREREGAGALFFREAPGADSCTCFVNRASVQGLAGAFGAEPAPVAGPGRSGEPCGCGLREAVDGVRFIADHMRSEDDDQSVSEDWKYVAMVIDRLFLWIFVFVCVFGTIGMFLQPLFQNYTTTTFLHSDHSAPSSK
T1 sequence (P09483 31-630): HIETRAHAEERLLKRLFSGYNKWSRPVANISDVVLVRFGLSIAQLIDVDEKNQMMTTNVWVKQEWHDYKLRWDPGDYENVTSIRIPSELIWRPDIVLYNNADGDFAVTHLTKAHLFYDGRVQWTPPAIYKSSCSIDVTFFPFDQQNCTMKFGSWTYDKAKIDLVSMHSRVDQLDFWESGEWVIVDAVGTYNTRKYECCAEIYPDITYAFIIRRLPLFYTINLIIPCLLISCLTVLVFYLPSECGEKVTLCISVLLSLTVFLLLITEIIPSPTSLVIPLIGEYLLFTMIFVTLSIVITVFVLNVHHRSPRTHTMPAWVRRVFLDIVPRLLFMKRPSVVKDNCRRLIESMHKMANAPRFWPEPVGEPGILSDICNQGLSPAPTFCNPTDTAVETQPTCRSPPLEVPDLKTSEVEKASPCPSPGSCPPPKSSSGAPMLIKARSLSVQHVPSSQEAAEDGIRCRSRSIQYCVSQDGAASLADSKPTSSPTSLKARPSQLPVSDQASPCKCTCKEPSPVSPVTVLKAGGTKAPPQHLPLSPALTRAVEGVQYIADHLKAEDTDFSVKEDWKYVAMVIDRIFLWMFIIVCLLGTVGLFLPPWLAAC
T1 sequence (P12390 25-500): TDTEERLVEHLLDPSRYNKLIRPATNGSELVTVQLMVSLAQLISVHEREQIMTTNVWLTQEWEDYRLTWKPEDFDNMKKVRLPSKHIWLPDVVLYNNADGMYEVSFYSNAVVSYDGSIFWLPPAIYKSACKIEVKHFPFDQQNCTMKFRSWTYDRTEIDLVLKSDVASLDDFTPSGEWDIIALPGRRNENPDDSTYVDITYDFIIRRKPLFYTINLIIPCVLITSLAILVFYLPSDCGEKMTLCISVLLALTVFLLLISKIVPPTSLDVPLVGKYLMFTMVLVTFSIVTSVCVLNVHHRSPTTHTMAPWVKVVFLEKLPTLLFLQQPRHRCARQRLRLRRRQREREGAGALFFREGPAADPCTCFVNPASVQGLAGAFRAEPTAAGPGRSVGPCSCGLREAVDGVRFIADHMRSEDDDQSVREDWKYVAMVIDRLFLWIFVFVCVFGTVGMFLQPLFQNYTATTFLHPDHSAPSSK
T2 sequence (P25108 21-457): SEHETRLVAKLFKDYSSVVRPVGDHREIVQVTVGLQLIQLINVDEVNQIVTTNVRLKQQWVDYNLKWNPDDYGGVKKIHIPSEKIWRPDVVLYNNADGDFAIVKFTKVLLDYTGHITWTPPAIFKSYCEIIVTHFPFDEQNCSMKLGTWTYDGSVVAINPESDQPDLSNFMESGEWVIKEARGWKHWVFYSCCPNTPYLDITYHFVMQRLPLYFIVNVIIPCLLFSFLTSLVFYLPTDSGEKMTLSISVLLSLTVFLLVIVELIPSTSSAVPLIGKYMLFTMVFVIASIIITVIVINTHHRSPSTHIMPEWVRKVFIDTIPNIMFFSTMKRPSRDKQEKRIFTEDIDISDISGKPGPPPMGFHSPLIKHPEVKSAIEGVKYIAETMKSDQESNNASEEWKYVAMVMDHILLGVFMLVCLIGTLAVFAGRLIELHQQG
T2 sequence (P25110 22-517): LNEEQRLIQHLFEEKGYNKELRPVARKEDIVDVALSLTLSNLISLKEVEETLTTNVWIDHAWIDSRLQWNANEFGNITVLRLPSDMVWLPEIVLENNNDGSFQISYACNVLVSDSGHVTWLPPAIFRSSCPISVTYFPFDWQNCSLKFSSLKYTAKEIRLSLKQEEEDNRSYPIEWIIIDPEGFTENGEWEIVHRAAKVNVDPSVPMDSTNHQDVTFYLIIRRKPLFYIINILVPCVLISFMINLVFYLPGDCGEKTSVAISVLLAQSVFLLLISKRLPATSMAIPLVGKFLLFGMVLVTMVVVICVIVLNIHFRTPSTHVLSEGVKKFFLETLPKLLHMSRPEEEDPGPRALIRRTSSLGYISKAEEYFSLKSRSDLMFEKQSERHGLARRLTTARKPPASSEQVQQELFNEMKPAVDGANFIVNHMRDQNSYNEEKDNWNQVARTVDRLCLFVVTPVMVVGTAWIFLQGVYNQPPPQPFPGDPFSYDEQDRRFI
T2 sequence (P25109 24-501): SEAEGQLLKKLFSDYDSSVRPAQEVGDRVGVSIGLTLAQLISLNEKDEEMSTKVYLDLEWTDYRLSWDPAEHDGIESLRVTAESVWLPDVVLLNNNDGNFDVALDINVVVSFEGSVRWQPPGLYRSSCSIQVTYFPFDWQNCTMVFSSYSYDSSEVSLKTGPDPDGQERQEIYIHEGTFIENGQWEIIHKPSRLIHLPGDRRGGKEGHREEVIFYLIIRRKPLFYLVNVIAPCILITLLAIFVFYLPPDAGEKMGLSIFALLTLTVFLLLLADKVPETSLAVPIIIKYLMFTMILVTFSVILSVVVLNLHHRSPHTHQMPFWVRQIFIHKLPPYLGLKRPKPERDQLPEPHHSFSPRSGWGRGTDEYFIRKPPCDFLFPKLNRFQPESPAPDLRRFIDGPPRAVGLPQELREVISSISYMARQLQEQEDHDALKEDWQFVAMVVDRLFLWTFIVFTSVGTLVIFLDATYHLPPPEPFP

| SMILES | Ki [1] [µM] | remaining activity at 100 µM [2, 4] [%] | remaining activity at 1000 µM [2, 4] [%] | EC50 [3] [µM] | Ki [2] [µM] | Emax at 100 µM [3] [%] |
| --- | --- | --- | --- | --- | --- | --- |
| N=C1OCCCN1Cc1ccc(Cl)nc1 [Compound 16, 3-(6-chloro-3-pyridyl)methyl-2-imino-3,4,5,6-tetrahydro-2H-1,3-oxazine] | 0.00065 | 14 | -2 | 1.5 |  |  |
| Cc1csc(=N)n1Cc1ccc(Br)nc1 [Compound 19, 3-(6-bromo-3-pyridyl)methyl-2-imino-4-methyl-2,3-dihydrothiazole] | 0.0105 |  |  |  | 11.7 | 3 |
| N=C1OCCN1Cc1ccc(Cl)nc1 [Compound 28, 3-(6-chloro-3-pyridyl)methyl-2-iminooxazolidine] | 0.00277 |  |  | 15.5 | 39.8 |  |
| NC1=NCCCN1Cc1ccc(Cl)nc1 [Compound 29, 1-(6-Chloro-3-pyridyl)methyl-2-imino-1,2,3,4,5,6-hexahydropyrimidine] | 0.00025 |  |  | 0.5 | 7.02 |  |
| Nc1nccn1Cc1cnc(Cl)s1 [Compound 50, 2-amino-1-(2-chloro-5-thiazolyl)methylimidazole] | 0.0271 |  |  | 92.4 | 818 |  |
| Cc1ccc(Cn2ccnc2N)cn1 [Compound 56, 2-amino-i-(6-methyl-3-pyridyl)methylimidazole] | 0.165 |  |  |  | 545 | 11 |
| N=c1sccn1Cc1ccc(Cl)cc1 [Compound 57, 3-(4-chlorobenzyl)-2-imino-2,3-dihydrothiazole] | 0.0119 |  |  |  | 13 | 23 |
| Nc1nccn1Cc1c[nH]c2ncccc12 [Compound 59, 2-amino-i-(7-aza-3-indolyl)methylimidazole] | 0.0502 |  |  |  | 1230 | 21 |
| N=c1sccn1Cc1ccc([N+](=O)[O-])cc1 [Compound 62, 2-imino-3-(4-nitrobenzyl)-2,3-dihydrothiazole] | 0.0291 |  |  | 325 | 79.8 |  |
